Active and inactive are the calls of the source.
Legend:
Vero [1] = experiment: cells; assay type: functional; conditions: Chlorocebus sabaeus
Vero [2] = experiment: cells; assay type: functional, cell-based; conditions: Chlorocebus sabaeus
HEK293 [3] = experiment: inhibition of NOD1-driven NF-kB reporter – cell-based, luminescence, uHTS, primary screen (AID 1578); assay type: functional; conditions: Homo sapiens
HEK293 [4] = experiment: cells; assay type: functional, cell-based; conditions: Homo sapiens
HEK293 [5] = experiment: NOD2 signaling inhibitors in MDP-stimulated cells, cell-based, uHTS, luminescence (AID 2001); assay type: functional; conditions: Homo sapiens
HEK293 [6] = experiment: cells; assay type: functional, cell-based; conditions: Homo sapiens; remark: listed apart in the source
HEK293 [7] = experiment: cells; assay type: functional, cell-based; conditions: Homo sapiens; remark: listed apart in the source
[8] = biological target: Nucleotide-binding oligomerization domain-containing protein 2 (Homo sapiens, UniProt Q9HC29); experiment: inhibition of NOD2-driven NF-kB reporter – cell-based, luminescence, uHTS, HEK293 (AID 1566); assay type: functional
Cytochrome P450 2C9 = Cytochrome P450 2C9 (Homo sapiens, UniProt P11712)
H4 = experiment: Luminescence Cell-Based Dose Response HTS to Identify Activators of 5'UTR Stem-Loop Driven Prion Protein mRNA Translation in H4 Neuroglioblastoma Cells. [Related pubchem assays: 1829 (Project Summary), 1814 (Primary HTS)]; assay type: functional; conditions: Homo sapiens
Cytochrome P450 3A4 = Cytochrome P450 3A4 (Homo sapiens, UniProt P08684);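 further: CYP3A4 tested as one member of a cytochrome P450 panel screen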
Protein skinhead-1 = biological target: T1, Protein skinhead-1 (Caenorhabditis elegans, UniProt P34707); assay type: functional
T1 sequence (P34707 whole entry): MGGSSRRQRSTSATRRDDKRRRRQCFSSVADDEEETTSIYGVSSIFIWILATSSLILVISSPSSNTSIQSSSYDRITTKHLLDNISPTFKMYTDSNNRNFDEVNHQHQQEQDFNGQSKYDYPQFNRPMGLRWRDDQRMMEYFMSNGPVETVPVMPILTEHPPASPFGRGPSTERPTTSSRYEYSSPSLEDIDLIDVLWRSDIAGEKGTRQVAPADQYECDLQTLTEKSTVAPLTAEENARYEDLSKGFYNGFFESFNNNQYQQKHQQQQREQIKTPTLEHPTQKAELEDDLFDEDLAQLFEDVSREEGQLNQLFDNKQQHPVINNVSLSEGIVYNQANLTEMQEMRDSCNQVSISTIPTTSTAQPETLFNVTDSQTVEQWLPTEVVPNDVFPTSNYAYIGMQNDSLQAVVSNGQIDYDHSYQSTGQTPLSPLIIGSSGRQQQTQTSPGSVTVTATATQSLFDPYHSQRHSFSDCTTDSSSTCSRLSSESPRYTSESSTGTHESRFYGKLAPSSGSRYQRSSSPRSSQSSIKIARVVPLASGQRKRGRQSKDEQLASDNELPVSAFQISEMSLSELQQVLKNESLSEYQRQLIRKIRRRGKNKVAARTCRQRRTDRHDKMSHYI

[9] = alpha-synuclein stem-loop luciferase translation blockers – H4 neuroglioma cells, luminescence, confirmation (AID 1988); assay type: functional, cell-based
[10] = HEK-293T viability loss after treatment – luminescence, T-cell screen hits, cytotoxicity control for TCR NF-kB inhibitor project, dose response (AID 489026); assay type: functional, cell-based;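 further: cells exposed to compound about 14 hours before the viability readout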
[11] = Luminescence Cell-Based Dose Response HTS to Identify Inhibitors of 5'UTR Stem-Loop Driven Prion Protein mRNA Translation in H4 Neuroglioblastoma Cells. [Related pubchem assays: 1827 (Project Summary), 1813 (Primary HTS)]; assay type: functional
[12] = luciferase reporter signal suppression in cells – H4 neuroglioma cells, luminescence, dose response (AID 1990); assay type: functional, cell-based
INS1 = experiment: INS-1E survival protection against cytokine death – cell-based, luminescence, retest, dose response (AID 449756); assay type: functional; conditions: Rattus norvegicus;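 further: cell death triggered by IL-1 beta plus TNF-alpha plus IFN-gamma mixture; protective hits raise ATP signal compared with cytokine alone wells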
[13] = biological target: T2, Voltage-gated N-type calcium channel alpha-1B subunit/Amyloid beta A4 precursor protein-binding family A member 1 (Homo sapiens, UniProt Q00975+Q02410); assay type: protein assay
[14] = general cell-killing toxicity readout – plate reader, dry powder samples, cytotoxicity control for PAX8 inhibitor project, dose response (AID 743021); assay type: functional, cell-based
[15] = biological target: T2, Voltage-gated N-type calcium channel alpha-1B subunit/Amyloid beta A4 precursor protein-binding family A member 1; assay type: protein assay; remark: listed apart in the source
Paired box protein Pax-8 = Paired box protein Pax-8 (Homo sapiens, UniProt Q06710); experiment: PAX8 transcriptional activity inhibition in RMG-I – RMG-I cells, luciferase, cherry-pick, dose response (AID 687027); assay type: functional, cell-based;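 further: luciferase reporter driven by Pax8 target thyroperoxidase promoter measured by SteadyGlo luminescence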
[16] = biological target: T3, Heat shock factor protein 1 (Mus musculus, UniProt P38532); experiment: enhancement of HSF1-driven luciferase signal – cell-based, NIH3T3, luminescence, dose retest, confirmation (AID 435004); assay type: functional;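 further: stress induced by proteasome inhibitor MG132 added 30 min after compound; luciferase reporter driven by HSF1 response element in NIH3T3 cells; actives raise luminescence as potentiators of the MG132 stress response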
T3 sequence (P38532 whole entry): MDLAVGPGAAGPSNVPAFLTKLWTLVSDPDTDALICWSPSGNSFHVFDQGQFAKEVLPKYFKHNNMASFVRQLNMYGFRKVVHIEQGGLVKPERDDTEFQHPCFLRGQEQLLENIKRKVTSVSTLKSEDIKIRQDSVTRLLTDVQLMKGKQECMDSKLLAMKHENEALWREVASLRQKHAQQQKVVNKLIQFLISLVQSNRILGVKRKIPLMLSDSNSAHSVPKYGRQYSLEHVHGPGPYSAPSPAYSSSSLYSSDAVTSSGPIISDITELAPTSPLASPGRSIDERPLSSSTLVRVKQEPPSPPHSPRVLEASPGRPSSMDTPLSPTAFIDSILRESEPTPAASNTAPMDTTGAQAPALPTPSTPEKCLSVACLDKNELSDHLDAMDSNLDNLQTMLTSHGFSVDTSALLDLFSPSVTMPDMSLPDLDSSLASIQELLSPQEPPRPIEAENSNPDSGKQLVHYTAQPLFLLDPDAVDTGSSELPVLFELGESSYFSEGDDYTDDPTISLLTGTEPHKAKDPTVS

Genome polyprotein = Genome polyprotein (dengue virus type 2, UniProt P29990); experiment: flavivirus cap methylation enzyme inhibition – biochemical, confirmation dose response, primary screen (AID 588689); assay type: functional
[17] = biological target: T4, Rac GTPase-activating protein 1 (Homo sapiens, UniProt Q9H0H5); experiment: blockers of MgcRacGAP-driven Rac1 GTP hydrolysis – biochemical, ADP Hunter fluorescence, primary and confirmatory, confirmation (AID 624330); assay type: functional
T4 sequence (Q9H0H5 whole entry): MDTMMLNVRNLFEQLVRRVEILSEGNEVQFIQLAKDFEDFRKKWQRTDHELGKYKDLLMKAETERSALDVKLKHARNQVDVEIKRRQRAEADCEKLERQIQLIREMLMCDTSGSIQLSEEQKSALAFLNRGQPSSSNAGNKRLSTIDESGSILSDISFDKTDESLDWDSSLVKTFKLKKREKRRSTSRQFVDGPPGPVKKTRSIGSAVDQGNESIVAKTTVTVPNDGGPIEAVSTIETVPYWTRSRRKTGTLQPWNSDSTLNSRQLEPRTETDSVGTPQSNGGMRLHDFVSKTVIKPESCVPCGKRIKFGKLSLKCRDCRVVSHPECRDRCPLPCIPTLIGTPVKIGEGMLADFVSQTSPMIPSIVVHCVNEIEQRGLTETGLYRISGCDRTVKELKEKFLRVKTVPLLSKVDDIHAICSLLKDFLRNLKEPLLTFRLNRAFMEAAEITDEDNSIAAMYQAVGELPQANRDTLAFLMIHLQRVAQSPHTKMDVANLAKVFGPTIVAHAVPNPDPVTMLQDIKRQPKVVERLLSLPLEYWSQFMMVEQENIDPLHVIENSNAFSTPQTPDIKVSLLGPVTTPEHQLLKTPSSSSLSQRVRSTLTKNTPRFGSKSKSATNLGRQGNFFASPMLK

T2 sequence (Q00975 whole entry): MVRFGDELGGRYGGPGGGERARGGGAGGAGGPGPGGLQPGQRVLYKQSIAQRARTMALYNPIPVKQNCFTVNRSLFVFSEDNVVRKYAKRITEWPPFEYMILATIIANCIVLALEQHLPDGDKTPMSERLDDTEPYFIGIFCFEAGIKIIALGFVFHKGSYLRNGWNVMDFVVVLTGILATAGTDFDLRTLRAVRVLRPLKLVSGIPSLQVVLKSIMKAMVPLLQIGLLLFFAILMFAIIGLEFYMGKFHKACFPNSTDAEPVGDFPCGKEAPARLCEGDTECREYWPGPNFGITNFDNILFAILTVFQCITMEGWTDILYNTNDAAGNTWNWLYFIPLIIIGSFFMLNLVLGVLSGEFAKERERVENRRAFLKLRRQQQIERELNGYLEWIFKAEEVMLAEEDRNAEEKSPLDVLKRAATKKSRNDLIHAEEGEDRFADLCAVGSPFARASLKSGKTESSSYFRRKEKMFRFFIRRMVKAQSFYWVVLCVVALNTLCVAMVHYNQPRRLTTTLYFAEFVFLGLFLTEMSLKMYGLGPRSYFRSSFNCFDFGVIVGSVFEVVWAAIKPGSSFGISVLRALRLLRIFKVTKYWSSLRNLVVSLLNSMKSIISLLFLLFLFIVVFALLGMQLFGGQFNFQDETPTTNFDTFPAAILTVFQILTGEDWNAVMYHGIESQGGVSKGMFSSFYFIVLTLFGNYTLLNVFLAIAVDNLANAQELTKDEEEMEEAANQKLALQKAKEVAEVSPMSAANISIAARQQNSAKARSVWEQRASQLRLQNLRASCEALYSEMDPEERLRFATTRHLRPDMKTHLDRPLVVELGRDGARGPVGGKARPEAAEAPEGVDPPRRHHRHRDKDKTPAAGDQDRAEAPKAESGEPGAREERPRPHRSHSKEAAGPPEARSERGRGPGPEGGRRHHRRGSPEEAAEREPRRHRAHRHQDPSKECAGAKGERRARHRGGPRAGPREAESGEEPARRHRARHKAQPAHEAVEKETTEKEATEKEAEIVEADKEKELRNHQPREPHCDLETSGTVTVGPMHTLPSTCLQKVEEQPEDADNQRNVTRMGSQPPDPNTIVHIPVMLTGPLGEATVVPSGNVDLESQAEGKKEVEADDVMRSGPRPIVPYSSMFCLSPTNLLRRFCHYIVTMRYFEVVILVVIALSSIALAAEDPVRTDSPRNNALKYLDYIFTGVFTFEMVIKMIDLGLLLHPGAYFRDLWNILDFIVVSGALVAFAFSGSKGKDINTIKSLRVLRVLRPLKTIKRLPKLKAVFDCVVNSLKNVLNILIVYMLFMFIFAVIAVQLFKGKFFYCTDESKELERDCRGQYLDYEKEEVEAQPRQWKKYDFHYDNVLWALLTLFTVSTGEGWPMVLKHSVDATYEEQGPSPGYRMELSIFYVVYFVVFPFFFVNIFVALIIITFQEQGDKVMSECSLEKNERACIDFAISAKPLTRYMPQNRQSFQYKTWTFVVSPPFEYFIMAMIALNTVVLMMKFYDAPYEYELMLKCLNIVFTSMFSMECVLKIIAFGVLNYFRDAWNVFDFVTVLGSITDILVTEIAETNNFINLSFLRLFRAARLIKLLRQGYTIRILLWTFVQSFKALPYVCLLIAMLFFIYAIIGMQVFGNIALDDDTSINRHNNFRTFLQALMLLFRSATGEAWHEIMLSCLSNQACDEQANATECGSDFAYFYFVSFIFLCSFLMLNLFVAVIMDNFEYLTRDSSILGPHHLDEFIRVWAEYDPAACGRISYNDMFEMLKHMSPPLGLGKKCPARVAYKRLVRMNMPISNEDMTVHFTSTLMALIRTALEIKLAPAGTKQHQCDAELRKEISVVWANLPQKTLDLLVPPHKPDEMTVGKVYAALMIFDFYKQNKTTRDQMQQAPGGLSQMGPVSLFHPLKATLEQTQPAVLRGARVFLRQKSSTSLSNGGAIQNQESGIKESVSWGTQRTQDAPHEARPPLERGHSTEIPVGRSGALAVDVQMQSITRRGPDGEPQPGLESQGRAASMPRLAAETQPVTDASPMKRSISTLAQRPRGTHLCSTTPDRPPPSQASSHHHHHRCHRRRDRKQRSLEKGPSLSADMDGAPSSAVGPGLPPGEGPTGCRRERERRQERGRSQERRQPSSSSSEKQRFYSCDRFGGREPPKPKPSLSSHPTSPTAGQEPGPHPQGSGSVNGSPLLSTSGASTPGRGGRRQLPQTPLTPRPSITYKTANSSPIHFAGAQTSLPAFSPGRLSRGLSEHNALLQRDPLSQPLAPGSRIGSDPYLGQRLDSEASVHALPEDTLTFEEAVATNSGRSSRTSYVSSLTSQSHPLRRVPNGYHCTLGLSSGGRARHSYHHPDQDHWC
T2 sequence (Q02410 whole entry): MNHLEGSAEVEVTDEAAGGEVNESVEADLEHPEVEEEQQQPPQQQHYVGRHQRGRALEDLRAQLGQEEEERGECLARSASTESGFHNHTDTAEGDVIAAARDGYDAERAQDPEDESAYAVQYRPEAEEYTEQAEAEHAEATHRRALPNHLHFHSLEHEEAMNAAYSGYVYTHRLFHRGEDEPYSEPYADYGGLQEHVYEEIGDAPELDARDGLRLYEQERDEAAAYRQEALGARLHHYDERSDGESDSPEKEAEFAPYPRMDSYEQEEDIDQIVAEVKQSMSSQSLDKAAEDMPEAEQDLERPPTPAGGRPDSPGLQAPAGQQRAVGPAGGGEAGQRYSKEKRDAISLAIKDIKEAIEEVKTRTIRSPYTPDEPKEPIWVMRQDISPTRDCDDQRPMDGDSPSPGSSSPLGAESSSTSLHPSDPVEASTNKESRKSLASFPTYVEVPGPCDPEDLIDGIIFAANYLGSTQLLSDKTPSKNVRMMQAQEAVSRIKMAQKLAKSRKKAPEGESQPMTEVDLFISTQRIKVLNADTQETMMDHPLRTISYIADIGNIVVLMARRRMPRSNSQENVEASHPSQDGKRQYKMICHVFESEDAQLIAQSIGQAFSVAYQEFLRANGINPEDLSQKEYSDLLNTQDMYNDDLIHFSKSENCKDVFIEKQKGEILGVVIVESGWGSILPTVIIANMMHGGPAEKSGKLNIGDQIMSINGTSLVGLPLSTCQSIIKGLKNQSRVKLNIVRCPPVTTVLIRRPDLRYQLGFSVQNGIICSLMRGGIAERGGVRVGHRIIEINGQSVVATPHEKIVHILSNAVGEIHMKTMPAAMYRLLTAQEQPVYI
Cytochrome P450 3A4, sequence (P08684 whole entry): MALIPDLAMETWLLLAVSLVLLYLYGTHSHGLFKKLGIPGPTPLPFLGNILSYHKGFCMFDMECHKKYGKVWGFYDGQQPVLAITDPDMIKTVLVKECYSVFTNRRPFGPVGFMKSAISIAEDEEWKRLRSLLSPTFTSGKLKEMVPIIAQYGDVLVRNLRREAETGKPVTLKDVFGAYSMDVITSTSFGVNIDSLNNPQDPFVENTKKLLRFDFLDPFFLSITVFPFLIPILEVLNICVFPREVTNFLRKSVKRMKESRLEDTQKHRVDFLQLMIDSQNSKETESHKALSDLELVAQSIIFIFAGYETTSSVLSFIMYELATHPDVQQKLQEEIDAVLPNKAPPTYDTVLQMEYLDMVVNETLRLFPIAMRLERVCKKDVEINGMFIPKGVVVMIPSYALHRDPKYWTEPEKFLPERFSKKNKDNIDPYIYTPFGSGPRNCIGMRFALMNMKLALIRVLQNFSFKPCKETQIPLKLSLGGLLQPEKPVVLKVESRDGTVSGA
Genome polyprotein, sequence (P29990 2492-3391 limits assumed): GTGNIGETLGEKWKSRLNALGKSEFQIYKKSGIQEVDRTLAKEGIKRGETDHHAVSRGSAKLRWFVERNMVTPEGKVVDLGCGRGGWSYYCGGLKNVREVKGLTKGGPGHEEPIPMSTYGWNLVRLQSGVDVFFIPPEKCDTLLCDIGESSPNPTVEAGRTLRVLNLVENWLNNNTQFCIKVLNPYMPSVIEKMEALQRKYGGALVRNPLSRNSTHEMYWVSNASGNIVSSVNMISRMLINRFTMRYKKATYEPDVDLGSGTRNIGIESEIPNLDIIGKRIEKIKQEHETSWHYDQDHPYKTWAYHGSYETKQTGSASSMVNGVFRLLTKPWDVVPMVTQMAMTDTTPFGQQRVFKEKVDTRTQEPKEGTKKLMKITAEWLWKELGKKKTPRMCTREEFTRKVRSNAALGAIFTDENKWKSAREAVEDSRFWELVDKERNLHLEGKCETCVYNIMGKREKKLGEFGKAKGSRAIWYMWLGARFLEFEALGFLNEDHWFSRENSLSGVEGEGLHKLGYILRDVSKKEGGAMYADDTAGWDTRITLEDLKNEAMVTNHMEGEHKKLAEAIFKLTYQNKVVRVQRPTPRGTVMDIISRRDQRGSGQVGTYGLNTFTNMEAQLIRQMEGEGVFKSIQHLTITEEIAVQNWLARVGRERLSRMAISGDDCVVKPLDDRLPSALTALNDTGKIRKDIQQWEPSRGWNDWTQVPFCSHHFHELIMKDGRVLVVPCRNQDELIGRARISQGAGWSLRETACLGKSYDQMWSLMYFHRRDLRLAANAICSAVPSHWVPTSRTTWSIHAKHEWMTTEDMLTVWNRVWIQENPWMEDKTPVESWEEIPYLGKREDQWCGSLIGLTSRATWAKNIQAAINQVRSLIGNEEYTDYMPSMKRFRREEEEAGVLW
Cytochrome P450 2C9, sequence (P11712 whole entry): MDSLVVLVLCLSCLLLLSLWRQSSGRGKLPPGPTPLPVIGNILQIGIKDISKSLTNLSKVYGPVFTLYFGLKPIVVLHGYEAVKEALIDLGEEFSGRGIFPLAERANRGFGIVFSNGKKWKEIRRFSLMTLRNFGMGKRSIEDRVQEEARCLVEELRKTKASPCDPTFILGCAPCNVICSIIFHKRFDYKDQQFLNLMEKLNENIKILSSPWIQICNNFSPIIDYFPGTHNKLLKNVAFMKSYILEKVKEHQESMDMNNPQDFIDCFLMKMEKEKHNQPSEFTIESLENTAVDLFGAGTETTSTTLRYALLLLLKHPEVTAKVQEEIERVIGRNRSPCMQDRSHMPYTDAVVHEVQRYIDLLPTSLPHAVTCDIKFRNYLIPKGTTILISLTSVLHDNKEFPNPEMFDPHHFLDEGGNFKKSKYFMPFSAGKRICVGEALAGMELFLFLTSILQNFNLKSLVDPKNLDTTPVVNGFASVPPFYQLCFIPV

Q: With `Cc1ccc(/C=C/C(=O)c2c(C)nc3ccccn23)cc1` as the molecule, how does the CC50 (Vero [1]) read?
A: Its CC50 is 17.6 µM (active).

Q: What about the IC50 (Vero [2]) of the same molecule?
A: Its IC50 is > 25 µM (active).

Q: Which results are given for `COc1ccc(C)cc1NC(=O)c1sc2ncnc(N3CCN(c4ccccn4)CC3)c2c1C`?
A: EC50 (HEK293 [3]): > 20 µM (inactive); IC50 (HEK293 [4]): > 20 µM (inactive); IC50 (HEK293 [5]): > 20 µM (inactive); IC50 (HEK293 [6]): > 20 µM (inactive); IC50 (HEK293 [7]): > 20 µM (inactive); EC50 [8]: > 20 µM (inactive)

Q: Which CC50 (Vero [1]) does the source give for `Cc1ccccc1C(=O)Nc1ccc2c(c1)CCCN2C(=O)c1cccs1` here?
A: The CC50 was > 25 µM (active).

Q: And the IC50 (Vero [2])?
A: Its IC50 is 7.77 µM (active).

Q: Which results are given for `O=[N+]([O-])c1ccc2nc(-c3ccc(Cl)cc3)n(OCc3ccccc3)c2c1`?
A: AC50 (Cytochrome P450 2C9): 22.4 µM (inconclusive); EC50 (H4): 0.973 µM (active); AC50 (Cytochrome P450 3A4): inconclusive; IC50 (Protein skinhead-1): > 100 µM (inactive)

Q: For `Cc1ccc2nc(C)c(CN3CCN(c4ccc([N+](=O)[O-])cc4Cl)CC3)n2c1`, which EC50 [9] is on record?
A: The EC50 was > 120 µM (not active).

Q: And the IC50 [10]?
A: The IC50 was > 80 µM (inactive).

Q: What about the EC50 [11] of the same molecule?
A: Its EC50 is 17.1 µM (active).

Q: What about the EC50 [12] of the same molecule?
A: Its EC50 is > 120 µM (not active).

Q: And the AC50 (INS1)?
A: The AC50 was 1.79 µM (active).

Q: For `COC(=O)N1CCC2(CC1)CCN(c1cccc(-c3ccccc3)c1)CC2`, which AC50 (Cytochrome P450 3A4) is on record?
A: Its AC50 is “inconclusive”.

Q: Which results are given for `COc1ccc(N2C(=O)CC(Sc3nnnn3-c3ccc(F)cc3)C2=O)cc1` (centres undefined)?
A: IC50 [13]: 3.95 µM (active); AC50 [14]: 26.6 µM (active); IC50 [15]: 11 µM (active); AC50 (Paired box protein Pax-8): 13.6 µM (active); EC50 [16]: 17.1 µM (active)

Q: With `NNc1cc([N+](=O)[O-])cc2c1c(=O)n(Cc1ccccc1)[s+]2[O-]` (centres undefined) as the molecule, how does the IC50 [13] read?
A: The IC50 was > 50 µM (inactive).

Q: What about the IC50 [15] of the same molecule?
A: Its IC50 is 10.3 µM (active).

Q: What about the IC50 (Genome polyprotein) of the same molecule?
A: The IC50 was 63.4 µM (active).

Q: And the IC50 [17]?
A: Its IC50 is 52.3 µM (active).
